Data as given in patent US7507860B2 (Pfizer Inc., priority 2004, dated 2009).
Substitutions are numbered along the chain they refer to.

How the values were obtained:
[1] = target: T1, human androgen receptor (hAR) (Homo sapiens, UniProt P10275); assay: Competitive binding analysis on baculovirus/Sf9 generated hAR extracts with 3H-DHT tracer; details: hAR extract, 1 nM 3H-DHT, one hour at 4° C; mean of multiple tests; read-out: AR Binding IC50
T1 construct: made in house; host or cells: baculovirus/Sf9 insect cells (crude extract)
T1 sequence (P10275 1-920): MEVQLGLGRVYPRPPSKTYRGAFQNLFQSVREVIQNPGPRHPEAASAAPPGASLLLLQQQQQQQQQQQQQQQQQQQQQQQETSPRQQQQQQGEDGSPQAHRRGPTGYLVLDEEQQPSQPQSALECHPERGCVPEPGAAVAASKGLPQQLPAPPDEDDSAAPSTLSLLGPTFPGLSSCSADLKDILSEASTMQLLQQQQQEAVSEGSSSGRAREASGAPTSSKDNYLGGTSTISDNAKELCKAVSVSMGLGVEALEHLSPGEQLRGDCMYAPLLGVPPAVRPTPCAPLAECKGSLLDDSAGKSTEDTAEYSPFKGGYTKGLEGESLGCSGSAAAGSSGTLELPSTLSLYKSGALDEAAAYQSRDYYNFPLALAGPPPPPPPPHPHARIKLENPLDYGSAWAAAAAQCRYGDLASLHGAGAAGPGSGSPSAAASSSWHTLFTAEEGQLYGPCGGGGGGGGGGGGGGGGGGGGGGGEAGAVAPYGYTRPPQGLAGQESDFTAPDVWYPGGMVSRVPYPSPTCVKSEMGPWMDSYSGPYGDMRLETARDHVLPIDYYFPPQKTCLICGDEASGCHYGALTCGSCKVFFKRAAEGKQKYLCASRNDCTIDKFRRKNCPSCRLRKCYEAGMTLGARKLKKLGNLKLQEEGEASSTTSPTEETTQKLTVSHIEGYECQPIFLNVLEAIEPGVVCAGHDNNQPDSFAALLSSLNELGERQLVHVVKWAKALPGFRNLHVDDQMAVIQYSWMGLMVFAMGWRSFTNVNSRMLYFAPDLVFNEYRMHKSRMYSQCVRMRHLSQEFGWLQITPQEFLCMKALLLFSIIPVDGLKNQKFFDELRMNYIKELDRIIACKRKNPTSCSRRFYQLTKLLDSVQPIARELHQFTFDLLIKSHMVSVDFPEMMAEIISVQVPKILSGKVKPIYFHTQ
Protocol: The compounds of Formula I have affinity for the androgen receptor. […] The description below describes how the assay was carried out.
Competitive binding analysis was performed on baculovirus/Sf9 generated hAR extracts in the presence or absence of different concentrations of test agent and a fixed concentration of ^3H-dihydrotestosterone (^3H-DHT) as tracer. This binding assay method is a modification of a protocol previously described (Liao S., et. al. J. Steroid Biochem. 20:11-17 1984). Briefly, progressively decreasing concentrations of compounds are incubated in the presence of hAR extract (Chang et al. P.N.A.S. Vol. 89, pp. […], 1992), hydroxylapatite, and 1 nM^3H-DHT for one hour at 4° C. Subsequently, the binding reactions are washed three times to completely remove excess unbound ^3H-DHT. hAR bound ^3H-DHT levels are determined in the presence of compounds (=i.e competitive binding) and compared to levels bound when no competitor is present (=i.e. maximum binding). Compound binding affinity to the hAR is expressed as the concentration of compound at which one half of the maximum binding is inhibited. Table II below provides the results that were obtained for selected compounds (reported data is the mean of multiple tests as shown below)

androgen receptor = target: T2, androgen receptor (Homo sapiens, UniProt P10275); assay: AR antagonist cell assay (MDA-MB453-MMTV clone 54-19 luciferase reporter, 100 pM DHT); type: cell-based; details: MDA-MB453-MMTV clone 54-19, inhibition of 100 pM DHT induction, 17 hr; mean of multiple tests; read-out: AR Cell IC50
T2 sequence (P10275 1-920 Q868H): T1 sequence (P10275 1-920) with Q868H
Protocol: The compounds ability to antagonize the effects of androgen on the androgen receptor were determined in a whole cell assay as described immediately below.
Experimental Procedure for AR Antagonist Cell Assay
This cell line is a stable transfected cell line with MDA-MB453 cell background (a human breast tumor cell line expressing androgen receptor). A MMTV minimal promoter containing ARE was first cloned in front of a firefly luciferase reporter gene. Then the cascade was cloned into transfection vector pUV120puro. […] Puromycin resistant stable cell line was selected. Cell Culture Media and Reagents:
Plating medium: DMEM (phenol red free), 10% charcoal treated HyClone serum, 1% L-glutamine
Assay medium: DMEM (phenol red free), 1% charcoal treated HyClone serum, 1% L-glutamine, and 1% penicillin/streptomycin
• 1. Cells are maintained in culture medium, splitting cells when they reach 80-90% confluence • 2. To test compounds, 10,000 cells/well are plated to opaque 96 cell culture plate in 100 ul/well plating medium, culture for overnight at 37° C. in cell culture incubator • 3. […] Add 10 ul/well freshly prepared DHT (final concentration at 100 pM) to each well, incubate at 37° C. for 17 hr (overnight) • 5.
The results are reported as the mean of multiple tests as described below (the numbers of tests are indicated in the footnote). N.D. denotes that the compound was not tested.

Question: Which results are given for CC(C)CC(Oc1ccc(C#N)c(C(F)(F)F)c1)C(=O)NC(C)C (stereo not shown) [Example 2, 2-(4-Cyano-3-trifluoromethyl-phenoxy)-4-methyl-pentanoic acid isopropylamide]?
Answer: IC50 [1]: 0.064 µM; IC50 (androgen receptor): 0.142 µM

Question: What does the source list for CCCC(Oc1ccc(C#N)c(C(F)(F)F)c1)C(=O)NCC (stereo not shown) [Example 5, 2-(4-Cyano-3-trifluoromethyl-phenoxy)-pentanoic acid ethylamide]?
Answer: IC50 [1]: 0.277 µM; IC50 (androgen receptor): > 1 µM

Question: What does the source list for CC(C)CC(Oc1ccc(C#N)c(C(F)(F)F)c1)C(=O)NCC1CC1 (stereo not shown) [Example 7, 2-(4-Cyano-3-trifluoromethyl-phenoxy)-4-methyl-pentanoic acid cyclopropylmethyl-amide]?
Answer: IC50 [1]: 0.107 µM; IC50 (androgen receptor): 0.661 µM

Question: What does the source list for CC(C)CNC(=O)C(CC(C)C)Oc1ccc(C#N)c(C(F)(F)F)c1 (stereo not shown) [Example 8, 2-(4-Cyano-3-trifluoromethyl-phenoxy)-4-methyl-pentanoic acid isobutyl-amide]?
Answer: IC50 [1]: 0.058 µM; IC50 (androgen receptor): 0.534 µM

Question: For COc1ccc(CCNC(=O)C(CC(C)C)Oc2ccc(C#N)c(C(F)(F)F)c2)cc1 (stereo not shown) [Example 9, 2-(4-Cyano-3-trifluoromethyl-phenoxy)-4-methyl-pentanoic acid [2-(4-methoxyphenyl)-ethyl]-amide], which IC50 [1] is on record?
Answer: The IC50 was 0.163 µM.

Question: What about the IC50 (androgen receptor) of the same compound?
Answer: The IC50 was over 1 µM.

Question: Which IC50 [1] does the source give for CC(C)CC(Oc1ccc(C#N)c(C(F)(F)F)c1)C(=O)NCCOc1ccccc1 (stereo not shown) [Example 10, 2-(4-Cyano-3-trifluoromethyl-phenoxy)-4-methyl-pentanoic acid (2-phenoxyethyl)-amide] here?
Answer: The IC50 was 0.091 µM.

Question: And the IC50 (androgen receptor)?
Answer: The IC50 was over 1 µM.

Question: Which results are given for CC(C)CC(Oc1ccc(C#N)c(C(F)(F)F)c1)C(=O)NCc1ccco1 (stereo not shown) [Example 11, 2-(4-Cyano-3-trifluoromethyl-phenoxy)-4-methyl-pentanoic acid (furan-2-yl-methyl)-amide]?
Answer: IC50 [1]: 0.172 µM; IC50 (androgen receptor): > 1 µM

Question: Which results are given for CC(C)CC(Oc1ccc(C#N)c(C(F)(F)F)c1)C(=O)NCc1cccs1 (stereo not shown) [Example 12, 2-(4-Cyano-3-trifluoromethyl-phenoxy)-4-methyl-pentanoic acid (thiophen-2-yl-methyl)-amide]?
Answer: IC50 [1]: 0.086 µM; IC50 (androgen receptor): > 1 µM

Question: Which results are given for CC(C)CC(Oc1ccc(C#N)c(C(F)(F)F)c1)C(=O)NC(C)c1cccs1 (stereo not shown) [Example 13, 2-(4-Cyano-3-trifluoromethyl-phenoxy)-4-methyl-pentanoic acid (1-thiophen-2-ylethyl)-amide]?
Answer: IC50 [1]: 0.24 µM; IC50 (androgen receptor): 0.398 µM

Question: Which results are given for CC(C)CC(Oc1ccc(C#N)c(C(F)(F)F)c1)C(=O)NC(C)c1cccnc1 (stereo not shown) [Example 15, 2-(4-Cyano-3-trifluoromethyl-phenoxy)-4-methyl-pentanoic acid (1-pyridin-3-ylethyl)-amide]?
Answer: IC50 [1]: 0.309 µM; IC50 (androgen receptor): > 1 µM

Question: How did the IC50 [1] turn out when CCCC(Oc1ccc(C#N)c(C(F)(F)F)c1)C(=O)NC(C)Cc1ccsc1 (stereo not shown) [Example 18, 2-(4-Cyano-3-trifluoromethyl-phenoxy)-pentanoic acid (1-methyl-2-thiophen-3-ylethyl)-amide] was run?
Answer: The IC50 was 0.222 µM.

Question: What about the IC50 (androgen receptor) of the same compound?
Answer: The IC50 was 0.815 µM.

Question: CC(C)CC(Oc1ccc(C#N)c(C(F)(F)F)c1)C(=O)NCc1cccnc1 (stereo not shown) [Example 19, 2-(4-Cyano-3-trifluoromethyl-phenoxy)-4-methyl-pentanoic acid (pyridin-3-yl-methyl)-amide] was tested. Which IC50 [1] did it give?
Answer: The IC50 was 0.131 µM.

Question: And the IC50 (androgen receptor)?
Answer: Its IC50 is over 1 µM.

Question: CC(C)CCNC(=O)C(CC(C)C)Oc1ccc(C#N)c(C(F)(F)F)c1 (stereo not shown) [Example 22, 2-(4-Cyano-3-trifluoromethyl-phenoxy)-4-methyl-pentanoic acid (3-methyl-butyl)amide] was tested. Which IC50 [1] did it give?
Answer: Its IC50 is 0.178 µM.

Question: And the IC50 (androgen receptor)?
Answer: Its IC50 is over 1 µM.

Question: What does the source list for CC(C)CC(Oc1ccc(C#N)c(C(F)(F)F)c1)C(=O)NCc1ccc2c(c1)OCO2 (stereo not shown) [Example 24, 2-(4-Cyano-3-trifluoromethyl-phenoxy)-4-methyl-pentanoic acid (benzo[1,3]dioxol-5-yl-methyl)-amide]?
Answer: IC50 [1]: 0.056 µM; IC50 (androgen receptor): 0.799 µM

Question: Which results are given for CC(C)CC(Oc1ccc(C#N)c(C(F)(F)F)c1)C(=O)NCc1ccc2c(c1)CCO2 (stereo not shown) [Example 25, 2-(4-Cyano-3-trifluoromethyl-phenoxy)-4-methyl-pentanoic acid (2,3-dihydro-benzofuran-5-yl-methyl)-amide]?
Answer: IC50 [1]: 0.067 µM; IC50 (androgen receptor): 0.798 µM

Question: With CC(C)CC(Oc1ccc(C#N)c(C(F)(F)F)c1)C(=O)NCc1ccc2nsnc2c1 (stereo not shown) [Example 26, 2-(4-Cyano-3-trifluoromethyl-phenoxy)-4-methyl-pentanoic acid (benzo[1,2,5]thiadiazol-5-yl-methyl)-amide] as the compound, how does the IC50 [1] read?
Answer: Its IC50 is 0.067 µM.

Question: What about the IC50 (androgen receptor) of the same compound?
Answer: Its IC50 is over 1 µM.

Question: Which results are given for CCCC(Oc1ccc(C#N)c(C(F)(F)F)c1)C(=O)NCc1ccc2c(c1)OCO2 (stereo not shown) [Example 29, 2-(4-Cyano-3-trifluoromethyl-phenoxy)-pentanoic acid (benzo[1,3]dioxol-5-yl-methyl)-amide]?
Answer: IC50 [1]: 0.18 µM; IC50 (androgen receptor): > 1 µM

Question: For CCCC(Oc1ccc(C#N)c(C(F)(F)F)c1)C(=O)NCc1ccc2c(c1)CCO2 (stereo not shown) [Example 30, 2-(4-Cyano-3-trifluoromethyl-phenoxy)-pentanoic acid (2,3-dihydro-benzofuran-5-yl-methyl)-amide], which IC50 [1] is on record?
Answer: Its IC50 is 0.134 µM.

Question: And the IC50 (androgen receptor)?
Answer: Its IC50 is 0.355 µM.

Question: With CCCC(Oc1ccc(C#N)c(C(F)(F)F)c1)C(=O)NCc1ccc2nsnc2c1 (stereo not shown) [Example 31, 2-(4-Cyano-3-trifluoromethyl-phenoxy)-pentanoic acid (benzo[1,2,5]thiadiazo-5-yl-methyl)-amide] as the compound, how does the IC50 [1] read?
Answer: Its IC50 is 0.083 µM.

Question: What about the IC50 (androgen receptor) of the same compound?
Answer: The IC50 was over 1 µM.

Question: Which results are given for COc1cccc(CNC(=O)C(CC(C)C)Oc2ccc(C#N)c(C(F)(F)F)c2)c1 (stereo not shown) [Example 33, 2-(4-Cyano-3-trifluoromethyl-phenoxy)-4-methyl-pentanoic acid-3-methoxy-benzylamide]?
Answer: IC50 [1]: 0.062 µM; IC50 (androgen receptor): 0.864 µM
